Read-outs that look alike come from different tables or passages of the source.
How the values were obtained:
hNudt16E76Q [1] = target: T1, hNudt16E76Q (Homo sapiens, UniProt Q96DE0, E76Q); test: Thermal stability of hNudt16E76Q with ligands, dye-free nanoDSF; assay type: binding; settings: for Tm, nanoDSF (Dye-Free) / ∆Tm, nanoDSF (Dye-Free): 5 µM hNudt16E76Q, 20 mM MgCl2, 0.5 mM ligand; for ∆Tm, nanoDSF (Dye-Free): relative to apo
T1 construct: 4xHis (four added histidines); made in house; host or cells: E. coli Rosetta 2 (DE3), pET16b
T1 sequence (Q96DE0 whole entry E76Q): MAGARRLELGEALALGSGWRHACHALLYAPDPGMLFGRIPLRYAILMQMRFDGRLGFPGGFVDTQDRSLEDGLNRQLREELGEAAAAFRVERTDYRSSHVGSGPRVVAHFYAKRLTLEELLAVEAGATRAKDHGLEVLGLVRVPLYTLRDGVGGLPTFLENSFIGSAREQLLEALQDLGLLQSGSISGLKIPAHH
Protocol: (§1) Protein thermal stability in the presence of various ligands was measured using two DSF methods: assays with SYPRO orange dye and dye-free assays. DSF assays with SYPRO orange dye were performed at specific ligand concentrations for each protein–ligand pair. This measurement was performed as described in Section 4.6.1, with a constant MgCl2 concentration of 20 mM and a concentration of the tested ligand maintained at 0.5 mM. DSF dye-free measurements were performed using a Prometheus NT.48 nanoDSF device (NanoTemper Technologies, München, Germany). The composition of the samples was identical to that in the DSF with SYPRO orange dye measurements, without the addition of any dye. […] The measurements were performed at a single ligand concentration for all ligands. After 10 min of pre-incubation, the samples were loaded into standard capillaries (NanoTemper Technologies, München, Germany). […] We fitted the melting temperatures (Tm) globally for at least three independent experiments (but separately for different DSF methods).

hNudt16E76Q [2] = target: T1, hNudt16E76Q; test: Thermal stability of hNudt16E76Q with ligands, DSF with SYPRO Orange; assay type: binding; settings: 5 µM hNudt16E76Q, 20 mM MgCl2, 0.5 mM ligand, 4× SYPRO Orange; for ∆Tm, DSF (with SYPRO Orange): relative to apo
Protocol: The protein thermal stability of wild-type hNudt16 and all tested mutants in the presence of increasing Mg^2+ ion concentration was measured using DSF with SYPRO orange dye on CFX RT-PCR (Bio-Rad, Hercules, CA, USA). This method is based on the change in fluorescence of the SYPRO orange dye in an aqueous buffer, which is strongly quenched, while its binding to the exposed hydrophobic regions of thermally unfolded protein results in an increased fluorescence. The optimal concentrations of protein, SYPRO orange dye, and buffer composition, in particular ion content, were determined. The samples were prepared and measured in clear 96-well multiplate PCR plates for RT-PCR (Bio-Rad, Hercules, CA, USA). […] The individual components of the solution were added in equal volumes to each well, with a final sample volume of 25 μL/well. The samples were gently mixed, and the 96-well plate was covered with optically clear PCR sealing tape (Bio-Rad, Hercules, CA, USA) to prevent evaporation. […] The data processing procedure was performed using Bio-Rad CFX Manager (version 1.6.541.1028), and melting point temperatures were calculated as the minimum of the first derivative plot.
as §1

hNudt16E76Q [3] = target: T1, hNudt16E76Q; test: Microscale thermophoresis (MST) binding, two independent binding sites model; settings: for ΔGdiss1 (for Kd1): calculated as −RTlnKd from MST Kd1; for ΔGdiss2 (for Kd2): calculated as −RTlnKd from MST Kd2
Protocol: Binding constants for protein–ligand pairs were established using the MST method. The hNudt16 E76Q was labeled with RED-tris-NTA 2nd Generation dye (Monolith HIS-tag labeling Kit, NanoTemper Technologies, München, Germany) according to the manufacturer’s instructions. Measurements were carried out in a wide range of ligand concentrations, selected after preliminary tests for each of the ligands. The results obtained were used to determine of binding parameters for a given ligand. Each MST measurement consisted of a series of 16 serial 1:2 dilutions of the ligand, and was performed at a constant dye-labeled protein concentration of 50 nM. After 10 min of pre-incubation, dye-labeled protein–ligand samples were manually loaded into Monolith™ NT.115 Premium Capillaries (NanoTemper Technologies, München, Germany) and analyzed using the Monolith NT.115 (NanoTemper Technologies). […] Analysis was performed using Origin package (OriginLab, Northampton, MA, USA) and dissociation constants were fitted globally for a series of at least six MST pseudo-titration experiments for each ligand. Up to 10 replicates were performed for some ligands.
For the dissociation constants obtained, we also calculated the free energy associated with the dissociation of the complex ΔGdiss according to the equation: ΔGdiss=−RTlnKd.

hNudt16 = hNudt16 (Homo sapiens, UniProt Q96DE0); test: Enzymatic hydrolysis catalyzed by hNudt16, products quantified by HPLC; assay type: biochemical; parameters: 4xHis (four added histidines); made in house; settings: 20 µM substrate, 37 °C; for Hydrolysis Products / Hydrolysis Rate, v/[E]0 (hydrolyzed substrate per minute per [enzyme] µM) / Hydrolysis Rate, v/µg (hydrolyzed substrate per minute per enzyme µg): pH 7.9, 6 mM MgCl2, nd = hydrolysis products not detected; for Susceptibility to hydrolysis by hNudt16 (in words): HPLC
Chain of hNudt16 (Q96DE0 whole entry): as the sequence (Q96DE0 whole entry E76Q) above, with Q76E counted along it
Protocol: Enzymatic hydrolysis catalyzed by hNudt16 was performed at 37 °C in 40 mM Tris buffer (pH 7.9) containing 100 mM NaCl, 6 mM MgCl2, and 2 mM DTT. The concentration of the investigated dinucleotides and mononucleotides was 20 µM in the reaction mixture.
The hydrolytic susceptibility of the compounds was studied using HPLC. Before each experiment, 1 mL of buffer solution containing the analyte was incubated at 37 °C for 10 min. The hydrolysis process was initiated by the addition of hNudt16. To analyze the reaction progress, 200-µL aliquots of the reaction mixture were withdrawn and incubated at 96 °C for 5 min to stop the reaction through heat inactivation of the enzyme. The samples were then subjected to an HPLC system (Agilent 1200 series, Agilent Technologies, California, USA) with a reverse-phase Supelcosil LC-18-T column and UV/VIS detector. The substrates and hydrolysis products were eluted at 20 °C with a linear gradient of methanol in 0.1 M KH2PO4 (from 0% to 40%) over 15 min at a flow rate of 1.0 mL/min. Changes in the absorbance at 260 nm were continuously monitored during the analysis. Hydrolysis products were identified by comparing their retention times with those of the reference samples. The extent of decapping, determined as the percentage of the hydrolyzed substrate, was calculated using the area under the chromatographic peak of the respective compounds.

[4] = second, weaker binding site, read-out: Kd2
[5] = stronger binding site, 50 nM dye-labeled protein, read-out: Kd1

Row | Compound | Tm, nanoDSF (Dye-Free) (hNudt16E76Q [1]) [°C] | ∆Tm, nanoDSF (Dye-Free) (hNudt16E76Q [1]) [°C] | Tm, DSF (with SYPRO Orange) (hNudt16E76Q [2]) [°C] | ∆Tm, DSF (with SYPRO Orange) (hNudt16E76Q [2]) [°C] | ΔGdiss1 (for Kd1) (hNudt16E76Q [3]) [kJ/mol] | ΔGdiss2 (for Kd2) (hNudt16E76Q [3]) [kJ/mol] | Kd (hNudt16E76Q [3]; [4]) [µM] | Kd (hNudt16E76Q [3]; [5]) [µM] | Hydrolysis Products (hNudt16) | Hydrolysis Rate, v/[E]0 (hydrolyzed substrate per minute per [enzyme] µM) (hNudt16) | Hydrolysis Rate, v/µg (hydrolyzed substrate per minute per enzyme µg) (hNudt16) [µM/min/µg] | Susceptibility to hydrolysis by hNudt16 (in words) (hNudt16) | ΔTm relative to the apo form, both DSF and nanoDSF (hNudt16E76Q [1]; 0.5 mM ligand, stated for both types of measurements)
1 | Nc1ccn([C@@H]2O[C@H](COP(=O)(O)OP(=O)(O)O)[C@@H](O)[C@H]2O)c(=O)n1 [CDP, Cytidine diphosphate] | 66.8 ± 0.1 | 1.66 ± 0.1 | 65.6 ± 0.1 | 1.81 ± 0.1 |  |  |  |  |  |  |  |  | 
2 | Nc1nc2c(ncn2[C@@H]2O[C@H](COP(=O)(O)OP(=O)(O)O)[C@@H](O)[C@H]2O)c(=O)[nH]1 [GDP, Guanosine diphosphate] | 78.6 ± 0.1 | 13.5 ± 0.1 | 77.0 ± 0.1 | 13.3 ± 0.1 | 37.53 | 24.73 | 45.6 ± 2.4 | 0.258 ± 0.045 |  |  |  |  | 
3 | Nc1nc2c(ncn2[C@@H]2O[C@H](COP(=O)(O)OP(=O)(O)OP(=O)(O)OC[C@H]3O[C@@H](n4cnc5c(=O)[nH]c(N)nc54)[C@H](O)[C@@H]3O)[C@@H](O)[C@H]2O)c(=O)[nH]1 [GpppG] | 76.0 ± 0.1 | 10.9 ± 0.1 | 74.8 ± 0.1 | 11.0 ± 0.1 |  |  |  |  |  |  |  |  | 
4 | NC(=O)c1ccc[n+]([C@@H]2O[C@H](COP(=O)([O-])OP(=O)(O)OC[C@H]3O[C@@H](n4cnc5c(N)ncnc54)[C@H](O)[C@@H]3O)[C@@H](O)[C@H]2O)c1 [NAD, Nicotinamide adenine dinucleotide] | 66.1 ± 0.1 | 1.1 ± 0.1 | 63.7 ± 0.1 | 0.0 ± 0.1 |  |  |  |  | NMN + AMP | 3.4 ± 0.4 µM/min/[E]0 | 0.14 ± 0.02 |  | 
5 | O=c1[nH]cnc2c1ncn2[C@@H]1O[C@H](COP(=O)(O)OP(=O)(O)O)[C@@H](O)[C@H]1O [IDP, Inosine diphosphate] | 82.9 ± 0.1 | 17.8 ± 0.1 | 81.5 ± 0.1 | 17.8 ± 0.1 | 42.00 | 33.80 | 1.2 ± 0.2 |  |  |  |  | very rapid hydrolysis reaction | 17.5–18.0 °C
6 | Nc1ncnc2c1ncn2[C@@H]1O[C@H](COP(=O)(O)OP(=O)(O)OC[C@H]2O[C@@H](n3cnc4c(N)ncnc43)[C@H](O)[C@@H]2O)[C@@H](O)[C@H]1O [AppA] | 66.8 ± 0.1 | 1.7 ± 0.1 | 65.2 ± 0.1 | 1.5 ± 0.1 | 17.54 |  |  | 833 | AMP | 40.8 ± 2.9 µM/min/[E]0 | 1.70 ± 0.12 |  | 

Results, then the compound that gave them:

Row | Tm, nanoDSF (Dye-Free) (hNudt16E76Q [1]) [°C] | ∆Tm, nanoDSF (Dye-Free) (hNudt16E76Q [1]) [°C] | Tm, DSF (with SYPRO Orange) (hNudt16E76Q [2]) [°C] | ∆Tm, DSF (with SYPRO Orange) (hNudt16E76Q [2]) [°C] | ΔGdiss1 (for Kd1) (hNudt16E76Q [3]) [kJ/mol] | ΔGdiss2 (for Kd2) (hNudt16E76Q [3]) [kJ/mol] | Kd (hNudt16E76Q [3]; [4]) [µM] | Kd (hNudt16E76Q [3]; [5]) [µM] | Hydrolysis Products (hNudt16) | Hydrolysis Rate, v/[E]0 (hydrolyzed substrate per minute per [enzyme] µM) (hNudt16) | Hydrolysis Rate, v/µg (hydrolyzed substrate per minute per enzyme µg) (hNudt16) [µM/min/µg] | Susceptibility to hydrolysis by hNudt16 (in words) (hNudt16) | ΔTm relative to the apo form, both DSF and nanoDSF (hNudt16E76Q [1]; 0.5 mM ligand, stated for both types of measurements) | Compound
7 | 67.4 ± 0.1 | 2.4 ± 0.1 | 64.9 ± 0.1 | 1.1 ± 0.1 |  |  |  |  | AMP + NMNH | 18.7 ± 1.5 µM/min/[E]0 | 0.78 ± 0.06 |  |  | NC(=O)C1=CN([C@@H]2O[C@H](COP(=O)(O)OP(=O)(O)OC[C@H]3O[C@@H](n4cnc5c(N)ncnc54)[C@H](O)[C@@H]3O)[C@@H](O)[C@H]2O)C=CC1 [NADH, Reduced NAD+]
8 | 68.1 ± 0.1 | 3.1 ± 0.1 | 67.0 ± 0.1 | 3.3 ± 0.1 | 24.90 | ≤10.38 | ≥ 15000 | 43 | AMP + dpCop | 18.0 ± 1.3 µM/min/[E]0 | 0.75 ± 0.05 |  |  | CC(C)(COP(=O)(O)OP(=O)(O)OC[C@H]1O[C@@H](n2cnc3c(N)ncnc32)[C@H](O)[C@@H]1O)[C@@H](O)C(=O)NCCC(=O)NCCS [dpCoA, Dephospho-coenzyme A]
9 | 73.5 ± 0.1 | 8.4 ± 0.1 | 72.3 ± 0.1 | 8.5 ± 0.1 | 33.58 |  | 230 ± 57 | 1.7 |  |  |  |  |  | Cn1c[n+]([C@@H]2O[C@H](COP(=O)(O)OP(=O)([O-])OP(=O)(O)OC[C@H]3O[C@@H](n4cnc5c(=O)[nH]c(N)nc54)[C@H](O)[C@@H]3O)[C@@H](O)[C@H]2O)c2nc(N)[nH]c(=O)c21 [m^7GpppG]
10 | 66.7 ± 0.1 | 1.6 ± 0.1 | 64.4 ± 0.1 | 0.7 ± 0.1 |  |  |  |  |  |  |  | resistant to hydrolytic cleavage |  | C[n+]1cn([C@@H]2O[C@H](COP(=O)(O)OP(=O)(O)O)[C@@H](O)[C@H]2O)c2nc(N)[nH]c(=O)c21 [m^7GDP, 7-methylguanosine diphosphate]

— paper PMC8535469, “Insight into the Binding and Hydrolytic Preferences of hNudt16 Based on Nucleotide Diphosphate Substrates” (International Journal of Molecular Sciences, 2021)
